One series deals with NIH3T3 cells. Put plainly: LDH cytotoxicity assay, NIH3T3. The class given is cell-based. Conditions: NIH3T3, concentrations used in soft agar assay. The procedure:
(§1) Soft agar colony growth assay was performed as previously described. The colonies were counted using Image-Pro Plus 7.0 software (Media Cybernetics). ATA cytotoxicity was assessed using the CyQUANT LDH Cytotoxicity Assay Kit (ThermoFisher) and was performed as per the manufacturer’s protocol.
(§2) NIH3T3 and HEK293 cells were treated with the indicated concentrations of ATA and the cytotoxicity was evaluated by calculating the amount of intracellular LDH released into the media. LDH absorbance after complete cell lysis is considered as 100% cytotoxicity and the absorbance after ATA treatment was normalized accordingly. (TIF) Click here for additional data file.

Series [1] concerns the target T1, VGLL1-TEAD complex (mouse Vgll1 (26-51) probe, human TEAD4 (217-434)) (Homo sapiens, UniProt Q15561).
T1 construct: made in house
Briefly: Vgll1-TEAD fluorescence polarization assay. The class given is binding. Conditions: TEAD4 350 nM, Vgll1 probe 25 nM. The method, then: (§3) Human YAP (61–100), human TAZ (23–57) and mouse Vgll1 (26–51) peptide probes were used; all the probes had carboxyfluorescein labels. Human TEAD4 (217–434) was used in the assay at a concentration of 350 nM and the peptide probe concentration was 25 nM. Disruptors were titrated at concentrations ranging from 0–150 μM to the probe-TEAD complex, and the mixtures were incubated at 25°C for 20 min. Then, polarization measurements were taken using a Victor3 (PerkinElmer) plate reader.
A general note: Polarisation of emitted light reports the rotation of a fluorescent probe.

Series [2] concerns CYR61, CTGF, AMOTL2 and ANKRD1 transcripts in TC-expressing NIH3T3 cells. Put plainly: qPCR of canonical TAZ target genes. The settings on record: ATA 10 μM, 48 h. The class given is cell-based, murine. The method, then:
NIH3T3 and HEK293 cells were obtained from the American Type Tissue Collection (ATCC, Manassas, VA) and cultured in DMEM containing 10% fetal bovine serum and penicillin/streptomycin. A TEAD dual luciferase reporter assay was performed as previously described. Cells were treated with vehicle control or ATA (10 μM) for 48 h before measuring the luciferase activity or processing the samples for RNA extraction. Each experiment was repeated at least 2-3 times. NIH3T3 cells were used. The extracted RNA (RNeasy Mini, Qiagen) from treated cells was either used for qPCR measurements or sent for bulk RNA-Seq. Sequencing runs were performed on an Illumina HiSeq 4000 sequencer (Genewiz). […] Paired end reads were aligned to the murine genome ([…]2 [27]. Raw count files were generated with featureCounts using a corresponding GTF reference. Differential gene expression analysis was performed with DESeq2 [29]. Transcripts were considered to be differentially expressed if the false discovery rate < 0.05 and Log2FC > 2. When performing differential gene expression for GSEA analysis, the Limma package was used (<5 CPM filtering) with t-scores used for rank statistics. GSEA plots and statistics were generated with FGSEA with custom gene sets. Raw sequencing reads and processed files have been deposited in the GEO repository (data will be uploaded upon manuscript acceptance). […]
(Quantitative PCR measures a nucleic acid by following its amplification.)

A further series concerns the target T2, TEAD4 (Homo sapiens, UniProt Q15561).
T2 construct: ThermoFluor assays measuring the melting temperatures (Tm) of full-length TAZ or TEAD in the presence of ATA; strep (N, cleaved yes); made in house; host or cells: Escherichia coli BL21(DE3)pLysS
Briefly: ThermoFluor assay, TEAD. The series is classed as binding. The settings on record: protein 5 μM. The procedure: (§4) To assess changes in protein stability, a dye-based thermal melting assay (ThermoFluor) was used. Purified protein (TAZ or TEAD4), ATA, and Protein Thermal Shift dye (ThermoFisher) were mixed in 96-well plates. The final concentration of the protein was 5 μM. The melting temperature was measured using LightCycler 480 (Roche). Each experiment was repeated at least twice.
On the technique in general: Differential scanning fluorimetry follows unfolding on heating by fluorescence.

Series [3] deals with T3, YAP/TAZ-binding domain of human TEAD4 (217-434), deacylated (Homo sapiens, UniProt Q15561).
T3 construct: made in house
T3 sequence (Q15561 217-434): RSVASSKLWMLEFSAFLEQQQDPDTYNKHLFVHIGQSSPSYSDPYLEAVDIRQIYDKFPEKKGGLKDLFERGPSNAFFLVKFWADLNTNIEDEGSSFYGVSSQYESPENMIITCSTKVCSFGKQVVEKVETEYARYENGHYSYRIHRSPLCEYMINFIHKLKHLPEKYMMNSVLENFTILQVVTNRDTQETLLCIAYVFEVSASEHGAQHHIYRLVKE
Put plainly: Surface plasmon resonance. The settings on record: one-site binding fit of steady-state response versus concentration; read-out: Kd, affinity between TEAD and ATA. The procedure:
The YAP/TAZ-binding domain of human TEAD4 (217–434) was deacylated and resuspended in 10 mM acetate buffer pH 5.0. TEAD was immobilized on a CM5 sensor chip (Cytiva, product, BR100530) using the amine coupling kit (Cytiva, product, BR10050) as per manufacturer’s guidelines. Various concentrations of ATA were dissolved in buffer containing 20 mM Tris pH 8.0, 150 mM NaCl, 1.5% DMSO and passed over the reference cell and the cell containing immobilized TEAD, and the resonance responses were recorded.

For series [4], the system named is NIH3T3 cells expressing TAZ-CAMTA1. Briefly: Soft agar colony growth assay, TAZ-CAMTA1. The class given is cell-based. The procedure:
as §1

Series [5] concerns TC/TEAD transcriptional activity in HEK293 cells expressing TAZ-CAMTA1. Briefly: TC/TEAD dual luciferase reporter assay. The series is classed as cell-based. The settings on record: ATA 10 μM, 48 h. The method, then:
NIH3T3 and HEK293 cells were obtained from the American Type Tissue Collection (ATCC, Manassas, VA) and cultured in DMEM containing 10% fetal bovine serum and penicillin/streptomycin. A TEAD dual luciferase reporter assay was performed as previously described. Cells were treated with vehicle control or ATA (10 μM) for 48 h before measuring the luciferase activity or processing the samples for RNA extraction. Each experiment was repeated at least 2–3 times.

The next series deals with T4, TAZ (Homo sapiens, UniProt Q9GZV5).
T4 construct: ThermoFluor assays measuring the melting temperatures (Tm) of full-length TAZ or TEAD in the presence of ATA; strep (C); made in house; host or cells: Escherichia coli BL21(DE3)pLysS
T4 sequence (Q9GZV5 whole entry): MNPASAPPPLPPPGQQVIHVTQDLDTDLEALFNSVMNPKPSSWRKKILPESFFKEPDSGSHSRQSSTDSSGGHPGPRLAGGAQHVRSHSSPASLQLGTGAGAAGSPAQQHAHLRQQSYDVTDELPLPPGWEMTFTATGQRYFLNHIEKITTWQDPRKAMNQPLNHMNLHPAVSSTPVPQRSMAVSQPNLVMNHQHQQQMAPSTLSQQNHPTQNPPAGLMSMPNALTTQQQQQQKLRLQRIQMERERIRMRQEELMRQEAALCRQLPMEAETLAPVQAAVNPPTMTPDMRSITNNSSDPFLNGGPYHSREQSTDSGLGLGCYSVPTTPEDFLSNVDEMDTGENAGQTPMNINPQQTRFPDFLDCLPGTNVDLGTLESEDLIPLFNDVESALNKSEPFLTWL
Briefly: ThermoFluor assay, TAZ. The class given is binding. The settings on record: full-length TAZ, protein 5 μM. The method, then:
as §4

The test system of series [6] is NIH3T3 expressing TAZ S89A. Briefly: Soft agar colony growth assay, TAZ S89A. The series is classed as cell-based. The method, then: as §1
Series [7] relates to NIH3T3 cells expressing NRAS G12V. Briefly: Soft agar colony growth assay, NRAS G12V. The series is classed as cell-based. The method, then:
as §1

The target in series [8] is T5, YAP-TEAD complex (human YAP (61-100) probe, human TEAD4 (217-434)) (Homo sapiens, UniProt Q15561).
T5 construct: made in house
T5 sequence (Q15561 217-434, one chain of several): as the sequence (Q15561 217-434) above
Put plainly: YAP-TEAD fluorescence polarization assay. Conditions: TEAD4 350 nM, YAP probe 25 nM; read-out: IC50, YAP-TEAD FP assay. The series is classed as binding. The procedure:
as §3

The test system of another series is HEK293 cells. Briefly: LDH cytotoxicity assay, HEK293. The class given is cell-based. Conditions: HEK293, concentrations used. The method, then: as §1, §2
Series [9] deals with T6, TAZ-TEAD complex (human TAZ (23-57) probe, human TEAD4 (217-434)) (Homo sapiens, UniProt Q15561).
T6 construct: made in house
T6 sequence (Q15561 217-434, one chain of several): as the sequence (Q15561 217-434) above
Briefly: TAZ-TEAD fluorescence polarization assay. The settings on record: TEAD4 350 nM, probe 25 nM. The series is classed as binding. The method, then:
as §3

Structures are written as SMILES. Like-named read-outs stand apart in the source and are kept apart here.

Data on one compound can be found in paper PMC9007350, “Aurintricarboxylic acid is a canonical disruptor of the TAZ-TEAD transcriptional complex” (PLoS ONE, 2022).

T2 sequence (Q15561 whole entry): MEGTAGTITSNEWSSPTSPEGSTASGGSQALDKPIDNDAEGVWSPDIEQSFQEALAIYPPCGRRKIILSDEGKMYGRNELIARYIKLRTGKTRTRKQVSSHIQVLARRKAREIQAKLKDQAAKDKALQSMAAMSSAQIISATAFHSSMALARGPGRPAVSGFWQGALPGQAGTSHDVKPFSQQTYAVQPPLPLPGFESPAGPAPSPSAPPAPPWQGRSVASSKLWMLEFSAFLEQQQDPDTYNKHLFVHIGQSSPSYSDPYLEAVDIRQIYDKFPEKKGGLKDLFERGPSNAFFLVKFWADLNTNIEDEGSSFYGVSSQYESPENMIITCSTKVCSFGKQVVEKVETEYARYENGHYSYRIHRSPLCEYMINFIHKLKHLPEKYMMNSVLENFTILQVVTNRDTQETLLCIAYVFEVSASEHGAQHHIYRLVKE
T1 sequence (Q15561 217-434, one chain of several): as the sequence (Q15561 217-434) above

`O=C(O)C1=CC(=C(c2ccc(O)c(C(=O)O)c2)c2ccc(O)c(C(=O)O)c2)C=CC1=O` [ATA, aurintricarboxylic acid]: the “cytotoxicity, LDH release” value in the series with NIH3T3 cells and with HEK293 cells was “did not show cytotoxicity” in each case. Moreover, the “disruption of the VGLL1-TEAD interaction (in words)” value in series [1] is on record as “ineffective”. For the same compound, in series [2], the “transcripts of canonical TAZ target genes (CYR61, CTGF, AMOTL2, ANKRD1) by qPCR” value was “suppression of these transcripts”. For the same compound, the “shift in Tm in the ThermoFluor assay (in words)” value on TEAD4 (TAZ or TEAD) is reported as “increased the Tm”. For the same compound, on TEAD4 (full-length TEAD), the “melting temperature (Tm) of TEAD + ATA” value was 54.8 °C. In addition, in series [3], the Kd was 3 µM. In addition, the “TC-driven soft agar colony growth” value in [4] was “dose-dependent reduction”. Further, the “TC-dependent increase of TEAD luciferase reporter activity” value in series [5] is “significantly reduced”. Moreover, the “melting temperature (Tm) of TAZ + ATA” value on TAZ stood at 53.1 °C. Also, in series [6], the “soft agar growth driven by TAZ S89A” value is listed as “inhibited soft agar growth”. Further, in series [7], the “NRAS G12V-induced soft agar growth” value was “unaffected”. Further, the IC50 in series [8] was determined as 160 µM; in series [9] (acylated TEAD, read-out: IC50, TAZ-TEAD FP assay, acylated TEAD), 68 µM; in series [9] (deacylated TEAD, read-out: IC50, TAZ-TEAD FP assay, deacylated TEAD), 72 µM.

Broadly, the Kd is the constant that tells how readily two partners part at equilibrium. As usually defined, the IC50 is the midpoint of a concentration-inhibition curve.
